Where two headings read alike, the source gives them in different places.
Key:
human STING (HAQ) [1] = target: T1, human STING (HAQ) (Homo sapiens, UniProt Q86WV6, G230A/H232R/R293Q); test: biochemical; format: binding
Experimental: (§1) DSF monitors thermal unfolding of protein in the presence of a fluorescent dye and is typically performed using a real-time PCR instrument. The temperature at which a protein unfolds is measured by an increase in the fluorescence of a dye with affinity for hydrophobic parts of the protein that are gradually exposed during unfolding. The fluorescence of the dye is quenched in aqueous environments, but when the dye associates with hydrophobic sites on the unfolded protein, its fluorescence increases. The fluorescence intensity is plotted as a function of the temperature, generating a sigmoidal curve that can be described by a two-state transition. The inflection point of the transition curve (Tm) is calculated using simple equations such as that of Boltzman.
(§2) Sealed plates were then placed into a Bio-Rad CFX96/C1000 thermocycler and FRET scanning mode (λ^excitation of 490 nm and reads at λ^emission of 570 nm) was used to measure fluorescence intensity. […] The melting point (Tm) obtained for STING protein alone was subtracted from Tm obtained for protein incubated with ligand to generate ΔTm values listed in the table below.
(§3) These additional compounds were tested as described above, however the protein concentration was 2 μM.

huSTING (WT) [2] = target: T2, huSTING (WT) (Homo sapiens (Human), UniProt Q86WV6, H232R); test: Differential scanning fluorimetry (DSF), huSTING (WT); format: binding; details: for ΔTm at 100 µM: read-out: DSF huSTING (WT) ΔTm (° C.)
Experimental: as §1, §2, §3
Target sequence in this assay (Q86WV6 other isoform, or with tags, fused parts or gaps, stated change not applied): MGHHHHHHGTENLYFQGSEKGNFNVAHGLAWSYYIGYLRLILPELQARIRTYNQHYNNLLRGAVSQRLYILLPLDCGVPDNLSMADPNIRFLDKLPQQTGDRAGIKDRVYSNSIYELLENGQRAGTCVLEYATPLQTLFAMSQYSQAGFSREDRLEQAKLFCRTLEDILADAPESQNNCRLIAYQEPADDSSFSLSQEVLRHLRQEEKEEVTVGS

huSTING (HAQ) = huSTING (HAQ) (Homo sapiens (Human), UniProt Q86WV6, G230A/H232R/R293Q/R71H); test: THP-1 reporter cell line assay, THP-1 STING Lucia ISG cells; format: cell-based
Sequence of huSTING (HAQ) (Q86WV6 whole entry R71H/G230A/H232R/R293Q): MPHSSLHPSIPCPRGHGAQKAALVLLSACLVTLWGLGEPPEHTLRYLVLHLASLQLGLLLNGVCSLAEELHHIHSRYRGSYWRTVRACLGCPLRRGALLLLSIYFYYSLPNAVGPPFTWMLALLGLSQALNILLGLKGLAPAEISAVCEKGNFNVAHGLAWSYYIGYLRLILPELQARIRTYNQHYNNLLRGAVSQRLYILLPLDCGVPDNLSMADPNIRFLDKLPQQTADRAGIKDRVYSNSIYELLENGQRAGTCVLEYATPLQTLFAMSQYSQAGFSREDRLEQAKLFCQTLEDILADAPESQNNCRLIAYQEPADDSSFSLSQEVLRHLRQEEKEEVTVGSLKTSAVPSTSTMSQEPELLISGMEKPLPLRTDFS

huSTING (WT) [3] = target: T2, huSTING (WT); test: THP-1 reporter cell line assay, THP-1-Dual KI-hSTING-R232 cells; format: cell-based
Target sequence in this assay (Q86WV6 whole entry H232R): as the sequence (Q86WV6 whole entry R71H/G230A/H232R/R293Q) above, with H71R, A230G, Q293R counted along it

human STING (HAQ) [4] = target: T1, human STING (HAQ); details: read-out: SPR (HAQ) KD; 25° C.
[5] = 1 μM protein, compound at 100 μM
[6] = THP-1 STING Lucia ISG cells, 24 h, top concentration 50 μM, read-out: Cellular EC50 huSTING (HAQ)
[7] = read-out: Cellular EC50 huSTING (WT)

T1 sequence (Q86WV6 whole entry G230A/H232R/R293Q, looked up): as the sequence (Q86WV6 whole entry R71H/G230A/H232R/R293Q) above, with H71R counted along it

Row | SMILES | DSF huSTING (HAQ) ΔTm (° C.) (human STING (HAQ) [1]; [5]) [°C] | ΔTm at 100 µM (huSTING (WT) [2]) [°C] | EC50 (huSTING (HAQ); [6]) [µM] | EC50 (huSTING (WT) [3]; [7]) [µM] | Kd (human STING (HAQ) [4]) [µM] | ΔTm at 100 µM (human STING (HAQ) [1]; read-out: DSF huSTING (HAQ) ΔTm (° C.)) [°C] | DSF huSTING (HAQ) ΔTm (° C.) (human STING (HAQ) [1]) [°C] | DSF huSTING (WT) ΔTm (° C.) (huSTING (WT) [2]) [°C] | EC50 (huSTING (HAQ)) [µM] | EC50 (huSTING (WT) [3]) [µM]
1 | NC(=O)c1c(F)cc(OCc2c(C(=O)O)sc3cccc(Cl)c23)cc1F [Example 28, 3-((4-Carbamoyl-3,5-difluorophenoxy)methyl)-4-chlorobenzo[b]thiophene-2-carboxylic acid] | 6.93 | 1.19 | > 50 | > 50 | 10.9 | – | – | – | – | –
2 | COc1cc(C(N)=O)ccc1OCc1c(C(=O)O)sc2cccc(Cl)c12 [Example 30, 3-((4-Carbamoyl-2-methoxyphenoxy)methyl)-4-chlorobenzo[b]thiophene-2-carboxylic acid] | 5.4 | -0.32 | 36.3 | > 50 | 22.1 | – | – | – | – | –
3 | NC(=O)c1ccc(OCc2c(C(=O)O)sc3cc(F)cc(F)c23)cc1 [Example 32, 3-((4-Carbamoylphenoxy)methyl)-4,6-difluorobenzo[b]thiophene-2-carboxylic acid] | 7.23 | 0.63 | > 50 | > 50 | 7.75 | – | – | – | – | –
4 | COc1cccc2sc(C(=O)O)c(COc3ccc(C(N)=O)cc3)c12 [Example 34, 3-((4-Carbamoylphenoxy)methyl)-4-methoxybenzo[b]thiophene-2-carboxylic acid] | 10.07 | 3.76 | > 50 | > 50 | 2.48 | – | – | – | – | –
5 | NC(=O)c1ccc(OCc2c(C(=O)O)sc3cccc(C(F)(F)F)c23)cc1 [Example 36, 3-((4-Carbamoylphenoxy)methyl)-4-(trifluoromethyl)benzo[b]thiophene-2-carboxylic acid] | 12.31 | 5.96 | > 50 | > 50 | 1.33 | – | – | – | – | –
6 | NC(=O)c1ccc(OCc2c(C(=O)O)sc3cccc(Cl)c23)c(Cl)c1 [Example 38, 3-((4-Carbamoyl-2-chlorophenoxy)methyl)-4-chlorobenzo[b]thiophene-2-carboxylic acid] | 6.02 | -1.4 | > 50 | > 50 | 16.4 | – | – | – | – | –
7 | COc1cc(C(N)=O)cc(OC)c1OCc1c(C(=O)O)sc2cccc(Cl)c12 [Example 42, 3-((4-Carbamoyl-2,6-dimethoxyphenoxy)methyl)-4-chlorobenzo[b]thiophene-2-carboxylic acid] | 2.83 | -0.64 | – | – | 80.5 | – | – | – | – | –
8 | N#Cc1cc(C(N)=O)ccc1OCc1c(C(=O)O)sc2cccc(Cl)c12 [Example 44, 3-((4-Carbamoyl-2-cyanophenoxy)methyl)-4-chlorobenzo[b]thiophene-2-carboxylic acid] | 7.64 | 1.3 | – | – | 7.95 | – | – | – | – | –
9 | CCOC(=O)c1sc2cccc(F)c2c1COc1ccc(C(N)=O)cc1F [Example 58, Ethyl 3-((4-carbamoyl-2-fluorophenoxy)methyl)-4-fluorobenzo[b]thiophene-2-carboxylate] | – | – | 9.19 | 27.7 | > 10000 | 0.43 | – | – | – | –
10 | N#Cc1cccc2sc(C(=O)O)c(COc3ccc(C(N)=O)cc3)c12 [Example 63, 3-((4-Carbamoylphenoxy)methyl)-4-cyanobenzo[b]thiophene-2-carboxylic acid] | 8.07 | 1.88 | – | – | 9.15 | – | – | – | – | –
11 | COc1cc(C(N)=O)cc(C)c1OCc1c(C(=O)O)sc2cccc(Cl)c12 [Example 73, 3-((4-carbamoyl-2-methoxy-6-methylphenoxy)methyl)-4-chlorobenzo[b]thiophene-2-carboxylic acid] | 1.79 | -1.03 | – | – | 67 | – | – | – | – | –
12 | CCOC(=O)c1sc2cccc(F)c2c1CCc1ccc(C(N)=O)cc1 [Example 87, Ethyl 3-(4-carbamoylphenethyl)-4-fluorobenzo[b]thiophene-2-carboxylate] | 0.54 | – | > 50 | > 50 | 3000 | – | – | – | – | –
13 | COCCOC(=O)c1sc2cccc(Cl)c2c1COc1c(F)cc(C(N)=O)cc1F [Example 158, 2-Methoxyethyl 3-((4-carbamoyl-2,6-difluorophenoxy)methyl)-4-chlorobenzo[b]thiophene-2-carboxylate] | – | – | – | – | – | – | −1.58 | −1.90 | 0.132 | 0.949
